In patent US20230136215A1, “PRODUCTION OF DUNALIELLA” (University of Greenwich, priority 2017, published 2023):

Columns and labels:
[1] = Effect of red and blue LED light on all-trans β-carotene dissolved in chloroform; assay type: physicochemical; details: 2.4 μM in chloroform, 24 h, 25° C.
Description: FIGS. 10A-10C: Effect of red and blue LED light on all-trans β-carotene. (FIG. 10A) Red light under nitrogen; (FIG. 10B) Red light in air; (FIG. 10C) Blue light in air. All-trans-β-carotene (Sigma) was dissolved in chloroform to a final concentration of 2.4 μM and vials were thoroughly flushed with either nitrogen or air, sealed and incubated for 24 h at 25° C. under LED lights. (FIG. 10A) red, nitrogen; (FIG. 10B), red, air; (FIG. 10C) blue, nitrogen or air. The same results as (FIG. 10A) were obtained for dark under nitrogen or air. […] In (FIG. 10A) (red light under nitrogen) no reaction of β-carotene was detected.

D. salina cultures = D. salina cultures treated with herbicides; carotenoid contents determined by HPLC; assay type: cell-based, Dunaliella salina; details: for content of phytoene per cell: continuous white LED light ~200 μmol m^−2 s^−1, 25° C.; for yield of phytoene, red light versus white light: herbicide-treated cultures, Table 4; for 9-cis/all-trans β-carotene ratio: norflurazon-treated
[2] = 20 μM chlorpropham, 6-days cultivation in white LED light
[3] = 20 μM chlorpropham, white light 1500 μmol m^−2 s^−1, 4 days' cultivation
[4] = Table 5 (red light), 1500 μmol m^−2 s^−1, 96 h
[5] = Table 5, red light, 200 μmol m^−2 s^−1, 144 h
[6] = red light 200 pmol m^−2 s^−1 continuous, 48 h, chlorpropham 10 μM, Norflurazon 5 µM
[7] = red light 200 μmol m^−2 s^−1 continuous, 48 h, chlorpropham 10 μM, Norflurazon 5 µM
[8] = white LED light 200 pmol m^−2 s^−1 continuous, 48 h, chlorpropham 10 μM, Norflurazon 5 µM
[9] = white LED light 200 μmol m^−2 s^−1 continuous, 48 h, chlorpropham 10 μM, Norflurazon 5 µM
[10] = Table 5, red light, 200 μmol m^−2 s^−1, 48 h

In the case of `CC1=C(/C=C/C(C)=C/C=C/C(C)=C/C=C/C=C(C)/C=C/C=C(C)/C=C/C2=C(C)CCCC2(C)C)C(C)(C)CCC1` [all-trans β-carotene, all-trans-β-carotene], the “destruction of all-trans β-carotene” value ([1]; blue light, nitrogen or air) is reported as “fully destroyed”, the “destruction of all-trans β-carotene” value ([1]; red light under air) is reported as 40% and the “reaction of β-carotene” value ([1]; red light under nitrogen) is reported as “no reaction”.
In the case of `O=C(O)CNCP(=O)(O)O` [glyphosate, 2-(phosphonomethylamino)acetic acid], the “content of phytoene per cell” value (D. salina cultures) is reported as “increased”.
In the case of `CC(C)OC(=O)Nc1cccc(Cl)c1` [chlorpropham, isopropyl N-(3-chlorophenyl) carbamate], the “final phytoene concentration in the cultures” value (D. salina cultures; [2]) is reported as 3.55 ± 0.11 mg/L, the “phytoene content in cells” value (D. salina cultures; [2]) is reported as 25.76±1.58 pg cell^−1 and the “increase of phytoene content in cells” value (D. salina cultures; 20 μM chlorpropham, 6-days cultivation in white LED light, compared to untreated cells) is reported as “ca. 50 fold”. For the same compound, the “increase of final phytoene concentration in the cultures” value (D. salina cultures; 20 μM chlorpropham, 6-days cultivation in white LED light, compared to untreated cultures) was 10 fold, the phytoene content (D. salina cultures; [3]) was “above 30 pg cell^−1” and the phytoene yield (D. salina cultures; [3]) was 8.2 mg/L. For the same compound, the “9-cis β-carotene” value (D. salina cultures; [4]) was 6.96 ± 0.74 pg cell^−1, the 9cis of total (D. salina cultures; [4]) was 12% and the “All-trans α-carotene” value (D. salina cultures; [4]) was 0.44 ± 0.07 pg cell^−1. For the same compound, the “All-trans β-carotene” value (D. salina cultures; [4]) was 17.34 ± 0.97 pg cell^−1, the Phytoene (D. salina cultures; [4]) was 30.62 ± 1.31 pg cell^−1 and the Phytofluene (D. salina cultures; [4]) was 1.87 ± 0.12 pg cell^−1. For the same compound, the “Total carotenoids (sum)” value (D. salina cultures; [4]) was 58.61 pg cell^−1, the lutein (D. salina cultures; [4]) was 0.61 ± 0.03 pg cell^−1 and the “phytoene + phytofluene of total” value (D. salina cultures; [4]) was 55%. The zeaxanthin (D. salina cultures; [4]) was 0.77 ± 0.02 pg cell^−1, the “9-cis β-carotene” value (D. salina cultures; [5]) was 31.3 ± 2.49 pg cell^−1 and the 9cis of total (D. salina cultures; [5]) was 29%. For the same compound, the “All-trans α-carotene” value (D. salina cultures; [5]) was 1.4 ± 0.13 pg cell^−1, the “All-trans β-carotene” value (D. salina cultures; [5]) was 18.34 ± 1.45 pg cell^−1 and the Phytoene (D. salina cultures; [5]) was 51.88 ± 4.53 pg cell^−1. For the same compound, the Phytofluene (D. salina cultures; [5]) was 3.02 ± 0.29 pg cell^−1, the “Total carotenoids (sum)” value (D. salina cultures; [5]) was 108.48 pg cell^−1 and the lutein (D. salina cultures; [5]) was 1.21 ± 0.09 pg cell^−1. For the same compound, the “phytoene + phytofluene of total” value (D. salina cultures; [5]) was 51%, the zeaxanthin (D. salina cultures; [5]) was 1.33 ± 0.10 pg cell^−1 and the “increase of cellular content of colorless carotenoids” value (D. salina cultures; compared to untreated cultures) was “more than 30 fold”. The “increase of yield of the colorless carotenoids” value (D. salina cultures; compared to untreated cultures) was “more than 10 fold”, the “yield of phytoene, red light versus white light” value (D. salina cultures; 48 h) was “more than doubled” and the Cell density (D. salina cultures; once chlorpropham was added) was “stopped increasing”. The “9-cis β-carotene” value (D. salina cultures; [6]) was 14.35 ± 1.24 pg cell^−1, the zeaxanthin (D. salina cultures; [6]) was 1.05 ± 0.06 pg cell^−1 and the 9cis of total (D. salina cultures; [7]) was 39%. For the same compound, the Phytoene (D. salina cultures; [7]) was 10.56 ± 1.53 pg cell^−1, the Phytofluene (D. salina cultures; [7]) was 1.58 ± 0.17 pg cell^−1 and the “Total carotenoids (sum)” value (D. salina cultures; [7]) was 36.7 pg cell^−1. For the same compound, the lutein (D. salina cultures; [7]) was 0.74 ± 0.05 pg cell^−1, the “phytoene + phytofluene of total” value (D. salina cultures; [7]) was 33% and the “phytoene contents under red light versus white light” value (D. salina cultures; same concentration of chlorpropham treatment) was “higher”. For the same compound, the “optimal concentration range of chlorpropham added to the cultures (phytoene production)” value (D. salina cultures; tested 0, 0.1, 1, 10, 20, 50 and 100 μM, 25° C.) was 10 to 50 µM, the “9-cis β-carotene” value (D. salina cultures; [8]) was 13.35 ± 1.88 pg cell^−1 and the zeaxanthin (D. salina cultures; [8]) was 0.84 ± 0.09 pg cell^−1. For the same compound, the 9cis of total (D. salina cultures; [9]) was 43%, the Phytoene (D. salina cultures; [9]) was 4.41 ± 0.65 pg cell^−1 and the Phytofluene (D. salina cultures; [9]) was 0.67 ± 0.09 pg cell^−1. For the same compound, the “Total carotenoids (sum)” value (D. salina cultures; [9]) was 30.99 pg cell^−1, the lutein (D. salina cultures; [9]) was 0.83 ± 0.13 pg cell^−1 and the “phytoene + phytofluene of total” value (D. salina cultures; [9]) was 16%.
For `COc1nc(C)nc(NC(=O)NS(=O)(=O)c2ccccc2Cl)n1` [chlorsulfuron, 1-(2-chlorophenyl)sulfonyl-3-(4-methoxy-6-methyl-1,3,5-triazin-2-yl)urea], the “content of phytoene per cell” value (D. salina cultures) was “increased”.
For `CCNC(=O)[C@@H](C)OC(=O)Nc1ccccc1` [carbetamide, (R)-1-(ethylcarbamoyl)ethyl carbanilate], the “content of phytoene per cell” value (D. salina cultures) was “increased”.
In the case of `Nc1cc(Cl)nc(C(=O)O)c1Cl` [aminopyralid, 4-amino-3,6-dichloropyridine-2-carboxylic acid], the “content of phytoene per cell” value (D. salina cultures) is reported as “increased”.
In the case of `CNc1cnn(-c2cccc(C(F)(F)F)c2)c(=O)c1Cl` [Norflurazon, 4-chloro-5-methylamino-2-(3-trifluoromethylphenyl)-pyridazin-3(2H)one], the “yield of phytoene, red light versus white light” value (D. salina cultures; 48 h) is reported as “more than doubled”, the “amount of phytoene produced under red light compared to white light” value (D. salina cultures; norflurazon 5 and 50 μM, 200 μmol m^−2 s^−1, 25° C., 48 h) is reported as “significantly higher” and the “9-cis/all-trans β-carotene ratio” value (D. salina cultures; red LED light 200 μmol m^−2 s^−1, 25° C., 48 h) is reported as 3.9. The “9-cis/all-trans β-carotene ratio” value (D. salina cultures; white LED light 200 μmol m^−2 s^−1, 25° C., 48 h) was 1.8, the “9-cis β-carotene” value (D. salina cultures; [6]) was 11.89 ± 0.83 pg cell^−1 and the zeaxanthin (D. salina cultures; [6]) was 1.12 ± 0.06 pg cell^−1. For the same compound, the 9cis of total (D. salina cultures; [7]) was 38%, the Phytoene (D. salina cultures; [7]) was 14.42 ± 0.95 pg cell^−1 and the Phytofluene (D. salina cultures; [7]) was 0.02 ± 0.00 pg cell^−1. For the same compound, the “Total carotenoids (sum)” value (D. salina cultures; [7]) was 31.55 pg cell^−1, the lutein (D. salina cultures; [7]) was 0.62 ± 0.02 pg cell^−1 and the “phytoene + phytofluene of total” value (D. salina cultures; [7]) was 46%. For the same compound, the “9-cis β-carotene” value (D. salina cultures; [8]) was 7.65 ± 0.67 pg cell^−1, the zeaxanthin (D. salina cultures; [8]) was 0.80 ± 0.07 pg cell^−1 and the 9cis of total (D. salina cultures; [9]) was 37%. The Phytoene (D. salina cultures; [9]) was 7.07 ± 0.36 pg cell^−1, the Phytofluene (D. salina cultures; [9]) was 0.01 ± 0.00 pg cell^−1 and the “Total carotenoids (sum)” value (D. salina cultures; [9]) was 20.6 pg cell^−1. For the same compound, the lutein (D. salina cultures; [9]) was 0.52 ± 0.02 pg cell^−1 and the “phytoene + phytofluene of total” value (D. salina cultures; [9]) was 34%.
In the case of `O=C(Nc1ccc(F)cc1F)c1cccnc1Oc1cccc(C(F)(F)F)c1` [Diflufenican, N-(2,4-difluorophenyl)-2-[3-(trifluoromethyl)phenoxy]pyridine-3-carboxamide], the “9-cis β-carotene” value (D. salina cultures; [10]) is reported as 10.84 ± 0.19 pg cell^−1, the 9cis of total (D. salina cultures; [10]) is reported as 38% and the “All-trans α-carotene” value (D. salina cultures; [10]) is reported as 0.34 ± 0.00 pg cell^−1. The “All-trans β-carotene” value (D. salina cultures; [10]) was 2.98 ± 0.11 pg cell^−1, the Phytoene (D. salina cultures; [10]) was 12.78 ± 0.40 pg cell^−1 and the Phytofluene (D. salina cultures; [10]) was 0.01 ± 0.00 pg cell^−1. The “Total carotenoids (sum)” value (D. salina cultures; [10]) was 28.64 pg cell^−1, the lutein (D. salina cultures; [10]) was 0.56 ± 0.01 pg cell^−1 and the “phytoene + phytofluene of total” value (D. salina cultures; [10]) was 45%. It also gave a zeaxanthin (D. salina cultures; [10]) of 1.13 ± 0.06 pg cell^−1.
